From ChEMBL document CHEMBL5625261, “Cytotoxic effects of kinetin riboside and its selected analogues on cancer cell lines” (Bioorg Med Chem Lett, 2024)

Experiments:
OVCAR-3 [1] = test: Cytotoxicity against human OVCAR-3 cells assessed as reduction in cell viability incubated for 24 hrs by MTT assay; assay type: functional, cell-based; details: OVCAR-3, 24 h
MIA PaCa-2 [2] = test: Cytotoxicity against human MIA PaCa-2 cells assessed as reduction in cell viability incubated for 24 hrs by MTT assay; assay type: functional, cell-based; details: MIA PaCa-2, 24 h
MCF7 [3] = test: Cytotoxicity against human MCF7 cells assessed as reduction in cell viability incubated for 48 hrs by MTT assay; assay type: functional, cell-based; details: MCF7, 48 h
MIA PaCa-2 [4] = test: Cytotoxicity against human MIA PaCa-2 cells assessed as reduction in cell viability incubated for 72 hrs by MTT assay; assay type: functional, cell-based; details: MIA PaCa-2, 72 h
HeLa [5] = test: Cytotoxicity against human HeLa cells assessed as reduction in cell viability incubated for 72 hrs by MTT assay; assay type: functional, cell-based
[6] = Cytotoxicity against human MRC5 cells assessed as reduction in cell viability incubated for 24 hrs by MTT assay; assay type: toxicity, cell-based
[7] = Cytotoxicity against human MRC5 cells assessed as reduction in cell viability incubated for 48 hrs by MTT assay; assay type: toxicity, cell-based
OVCAR-3 [8] = test: Cytotoxicity against human OVCAR-3 cells assessed as reduction in cell viability incubated for 48 hrs by MTT assay; assay type: functional, cell-based; details: OVCAR-3, 48 h
Caco-2 [9] = test: Cytotoxicity against human Caco-2 cells assessed as reduction in cell viability incubated for 48 hrs by MTT assay; assay type: functional, cell-based; details: Caco-2, 48 h
Caco-2 [10] = test: Cytotoxicity against human Caco-2 cells assessed as reduction in cell viability incubated for 24 hrs by MTT assay; assay type: functional, cell-based; details: Caco-2, 24 h
HeLa [11] = test: Cytotoxicity against human HeLa cells assessed as reduction in cell viability incubated for 24 hrs by MTT assay; assay type: functional, cell-based
HeLa [12] = test: Cytotoxicity against human HeLa cells assessed as reduction in cell viability incubated for 48 hrs by MTT assay; assay type: functional, cell-based
[13] = Cytotoxicity against human MRC5 cells assessed as reduction in cell viability incubated for 72 hrs by MTT assay; assay type: toxicity, cell-based
OVCAR-3 [14] = test: Cytotoxicity against human OVCAR-3 cells assessed as reduction in cell viability incubated for 72 hrs by MTT assay; assay type: functional, cell-based; details: OVCAR-3, 72 h
Caco-2 [15] = test: Cytotoxicity against human Caco-2 cells assessed as reduction in cell viability incubated for 72 hrs by MTT assay; assay type: functional, cell-based; details: Caco-2, 72 h
MIA PaCa-2 [16] = test: Cytotoxicity against human MIA PaCa-2 cells assessed as reduction in cell viability incubated for 48 hrs by MTT assay; assay type: functional, cell-based; details: MIA PaCa-2, 48 h
MCF7 [17] = test: Cytotoxicity against human MCF7 cells assessed as reduction in cell viability incubated for 24 hrs by MTT assay; assay type: functional, cell-based; details: MCF7, 24 h
MCF7 [18] = test: Cytotoxicity against human MCF7 cells assessed as reduction in cell viability incubated for 72 hrs by MTT assay; assay type: functional, cell-based; details: MCF7, 72 h

| Compound | IC50 (OVCAR-3 [1]) [µM] | IC50 (MIA PaCa-2 [2]) [µM] | IC50 (MCF7 [3]) [µM] | IC50 (MIA PaCa-2 [4]) [µM] | IC50 (HeLa [5]) [µM] | IC50 at 24 h [6] [µM] | IC50 at 48 h [7] [µM] | IC50 (OVCAR-3 [8]) [µM] | IC50 (Caco-2 [9]) [µM] | IC50 (Caco-2 [10]) [µM] | IC50 (HeLa [11]) [µM] | IC50 (HeLa [12]) [µM] | IC50 at 72 h [13] [µM] | IC50 (OVCAR-3 [14]) [µM] | IC50 (Caco-2 [15]) [µM] | IC50 (MIA PaCa-2 [16]) [µM] | IC50 (MCF7 [17]) [µM] | IC50 (MCF7 [18]) [µM] |
| --- | --- | --- | --- | --- | --- | --- | --- | --- | --- | --- | --- | --- | --- | --- | --- | --- | --- | --- |
| OC[C@H]1O[C@@H](n2cnc3c(NCc4cccs4)ncnc32)[C@H](O)[C@@H]1O | > 100 | > 100 | 3 | 1.1 | > 100 | 12.7 | 2.1 | 2.9 | 10.5 | 16.9 | > 100 | > 100 | 1.8 | 1.5 | 5.9 | 1.2 | 20.8 | 2.6 |
| Nc1nc(NCc2ccco2)nc2c1ncn2[C@@H]1O[C@H](CO)[C@@H](O)[C@H]1O | > 100 | > 100 | > 100 | > 100 | > 100 | > 100 | > 100 | > 100 | > 100 | > 100 | > 100 | > 100 | > 100 | > 100 | > 100 | > 100 | > 100 | > 100 |
| OC[C@H]1O[C@@H](n2cnc3c(NCc4ccco4)ncnc32)[C@@H](O)[C@@H]1O | > 100 | > 100 | > 100 | > 100 | > 100 | > 100 | > 100 | > 100 | > 100 | > 100 | > 100 | > 100 | > 100 | > 100 | > 100 | > 100 | > 100 | > 100 |
| OC[C@H]1O[C@@H](n2nnc3c(NCc4ccco4)ncnc32)[C@H](O)[C@@H]1O | > 100 | > 100 | 4.3 | 1.1 | 4.6 | > 100 | 11.7 | 76 | 18.7 | 25 | > 100 | 14.5 | 4.6 | 1.1 | 11.5 | 2.8 | 27 | 3.8 |
